Laboratory results published in patent US20260070906A1, “IMIDAZO[4,5-C]PYRIDINE COMPOUNDS FOR THE TREATMENT OF CANCER” (Hoffmann-La Roche Inc., priority 2023, published 2026).

Columns and labels:
human TLR8 = biological target: T1, human TLR8 (Homo sapiens, UniProt Q9NR97); assay: HEK293-Blue-hTLR8 cells assay (NF-κB SEAP reporter); format: cell-based; settings: 20 hours incubation, agonism
T1 construct: host or cells: HEK293-Blue-hTLR8 (HEK293)
T1 sequence (Q9NR97 27-1041): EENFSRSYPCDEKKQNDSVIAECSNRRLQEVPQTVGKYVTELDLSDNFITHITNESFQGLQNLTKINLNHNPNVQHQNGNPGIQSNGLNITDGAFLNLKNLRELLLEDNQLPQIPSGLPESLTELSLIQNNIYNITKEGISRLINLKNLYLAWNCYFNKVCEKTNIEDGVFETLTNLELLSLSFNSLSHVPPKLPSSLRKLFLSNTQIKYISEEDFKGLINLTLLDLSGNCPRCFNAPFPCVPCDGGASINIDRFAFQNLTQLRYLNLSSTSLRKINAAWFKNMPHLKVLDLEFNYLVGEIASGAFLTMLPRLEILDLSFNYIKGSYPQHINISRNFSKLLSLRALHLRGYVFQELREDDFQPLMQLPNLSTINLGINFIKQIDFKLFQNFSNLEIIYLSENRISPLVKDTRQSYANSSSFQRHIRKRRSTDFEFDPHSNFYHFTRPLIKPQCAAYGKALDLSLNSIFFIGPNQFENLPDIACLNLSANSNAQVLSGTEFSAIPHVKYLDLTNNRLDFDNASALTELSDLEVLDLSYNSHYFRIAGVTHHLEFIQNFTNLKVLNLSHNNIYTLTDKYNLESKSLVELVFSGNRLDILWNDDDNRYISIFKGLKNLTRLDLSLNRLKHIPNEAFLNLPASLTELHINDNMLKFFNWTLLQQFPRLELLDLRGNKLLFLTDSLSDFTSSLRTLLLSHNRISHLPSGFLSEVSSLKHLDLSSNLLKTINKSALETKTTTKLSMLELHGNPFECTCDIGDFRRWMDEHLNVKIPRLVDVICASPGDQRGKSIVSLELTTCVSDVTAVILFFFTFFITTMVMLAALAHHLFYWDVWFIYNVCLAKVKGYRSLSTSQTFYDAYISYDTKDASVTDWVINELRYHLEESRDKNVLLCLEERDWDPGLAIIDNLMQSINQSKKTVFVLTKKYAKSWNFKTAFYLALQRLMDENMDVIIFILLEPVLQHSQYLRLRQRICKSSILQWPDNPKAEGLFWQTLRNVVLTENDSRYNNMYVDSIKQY
Text: A stable HEK293-Blue-hTLR8 cell line was purchased from InvivoGen (Cat. #: hkb-htlr8, San Diego, California, USA). These cells were designed for studying the stimulation of human TLR8 by monitoring the activation of NF-κB. A SEAP (secreted embryonic alkaline phosphatase) reporter gene was placed under the control of the IFN-β minimal promoter fused to five NF-κB and AP-1-binding sites. The SEAP was induced by activating NF-κB and AP-1 via stimulating HEK-Blue hTLR8 cells with TLR8 ligands. Therefore the reporter expression was regulated by the NF-κB promoter upon stimulation of human TLR8. The cell culture supernatant SEAP reporter activity was determined using QUANTI-Blue™ kit (Cat. #: rep-qbl, Invivogen, San Diego, Ca, USA) at a wavelength of 650 nm, a detection medium that turns purple to blue in the presence of alkaline phosphatase.
HEK293-Blue-hTLR8 cells were incubated at a density of 250,000-450,000 cells/mL in a volume of 180 μL in a 96-well plate in Dulbecco's Modified Eagle's medium (DMEM) containing 4.5 g/L glucose, 100 U/mL penicillin, 100 μg/mL streptomycin, 100 μg/mL Normocin, 1% (V/V) GlutaMAX™, 10% (v/v) heat-inactivated fetal bovine serum for 24 hours. Then the HEK293-Blue-hTLR8 cells were incubated with addition of 20 μL test compound in a serial dilution in the presence of final DMSO at 1% and perform incubation under 37° C. in a CO2 incubator for 20 hours. Then 20 μL of the supernatant from each well was incubated with 180 μL Quanti-blue substrate solution at 37° C. for 1 hours and the absorbance was read at 620-655 nm using a spectrophotometer. The signalling pathway that TLR8 activation leads to downstream NF-κB activation has been widely accepted, and therefore similar reporter assay was also widely used for evaluating TLR8 agonist.

human TLR7 = biological target: T2, human TLR7 (Homo sapiens, UniProt Q9NYK1); assay: HEK293-Blue-hTLR7 cells assay (NF-κB SEAP reporter); format: cell-based; settings: 20 hrs incubation, agonism
T2 construct: host or cells: HEK293-Blue-hTLR7 (HEK293)
T2 sequence (Q9NYK1 27-1049): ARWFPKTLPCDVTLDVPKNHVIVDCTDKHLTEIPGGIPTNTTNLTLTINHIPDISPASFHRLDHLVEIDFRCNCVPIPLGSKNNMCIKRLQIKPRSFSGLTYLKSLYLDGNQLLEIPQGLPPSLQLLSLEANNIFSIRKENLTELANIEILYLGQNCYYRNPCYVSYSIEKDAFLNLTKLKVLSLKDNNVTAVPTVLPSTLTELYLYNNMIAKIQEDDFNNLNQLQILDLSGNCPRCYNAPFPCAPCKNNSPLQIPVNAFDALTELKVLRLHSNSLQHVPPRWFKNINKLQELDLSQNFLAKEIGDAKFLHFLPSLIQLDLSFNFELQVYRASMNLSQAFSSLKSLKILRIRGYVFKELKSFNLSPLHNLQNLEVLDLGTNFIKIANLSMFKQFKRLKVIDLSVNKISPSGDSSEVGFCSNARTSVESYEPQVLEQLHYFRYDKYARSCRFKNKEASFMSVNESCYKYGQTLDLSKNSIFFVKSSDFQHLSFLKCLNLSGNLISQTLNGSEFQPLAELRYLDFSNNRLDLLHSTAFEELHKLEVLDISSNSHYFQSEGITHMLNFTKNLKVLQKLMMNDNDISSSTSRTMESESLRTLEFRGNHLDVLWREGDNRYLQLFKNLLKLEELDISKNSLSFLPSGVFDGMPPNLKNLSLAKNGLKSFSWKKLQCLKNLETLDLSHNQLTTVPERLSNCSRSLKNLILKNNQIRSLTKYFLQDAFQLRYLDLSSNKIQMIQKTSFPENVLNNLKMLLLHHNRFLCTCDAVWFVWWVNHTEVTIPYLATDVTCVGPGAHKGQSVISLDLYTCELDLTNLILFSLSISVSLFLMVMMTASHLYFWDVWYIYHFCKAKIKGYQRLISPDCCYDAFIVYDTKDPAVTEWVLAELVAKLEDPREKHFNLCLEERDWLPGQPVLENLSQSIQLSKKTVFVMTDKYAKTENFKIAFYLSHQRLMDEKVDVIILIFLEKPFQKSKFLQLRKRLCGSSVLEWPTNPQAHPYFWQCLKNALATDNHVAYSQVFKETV
Text: A stable HEK293-Blue-hTLR7 cell line was purchased from InvivoGen (Cat. #: hkb-htlr7, San Diego, California, USA). These cells were designed for studying the stimulation of human TLR7 by monitoring the activation of NF-κB. A SEAP (secreted embryonic alkaline phosphatase) reporter gene was placed under the control of the IFN-β minimal promoter fused to five NF-κB and AP-1-binding sites. The SEAP was induced by activating NF-κB and AP-1 via stimulating HEK-Blue hTLR7 cells with TLR7 ligands. Therefore the reporter expression was regulated by the NF-κB promoter upon stimulation of human TLR7 for 20 hrs. The cell culture supernatant SEAP reporter activity was determined using QUANTI-Blue™ kit (Cat. #: rep-qbl, Invivogen, San Diego, Ca, USA) at a wavelength of 650 nm, a detection medium that turns purple or blue in the presence of alkaline phosphatase.
HEK293-Blue-hTLR7 cells were incubated at a density of 250,000˜450,000 cells/mL in a volume of 180 μL in a 96-well plate in Dulbecco's Modified Eagle's medium (DMEM) containing 4.5 g/L glucose, 100 U/mL penicillin, 100 μg/mL streptomycin, 100 μg/mL Normocin, 1% (V/V) GlutaMAX™, 10% (V/V) heat-inactivated fetal bovine serum for 24 hrs. Then the HEK293-Blue-hTLR-7 cells were incubated with addition of 20 μL test compound in a serial dilution in the presence of final DMSO at 1% and perform incubation under 37° C. in a CO2 incubator for 20 hrs. Then 20 μL of the supernatant from each well was incubated with 180 μL Quanti-blue substrate solution at 37° C. for 1 hours and the absorbance was read at 620-655 nm using a spectrophotometer. The signalling pathway that TLR7 activation leads to downstream NF-κB activation has been widely accepted, and therefore similar reporter assay was also widely used for evaluating TLR7 agonist (Tsuneyasu Kaisho and Takashi Tanaka, Trends in Immunology, Volume 29, Issue 7, July 2008, […]; Hiroaki Hemmi et al, Nature Immunology 3, 196-200 (2002)).

Compound | EC50 (human TLR8) [nM] | EC50 (human TLR7) [nM] | HEK293-hTLR8 EC50 (human TLR8) | HEK293-hTLR7 EC50 (human TLR7)
CCOCc1nc2c(N)nc(C)c(Sc3ccc(CN(C)C)cc3O)c2[nH]1 [Example 8, 2-[[4-amino-2-(ethoxymethyl)-6-methyl-1H-imidazo[4,5-c]pyridin-7-yl]sulfanyl]-5-[(dimethylamino)methyl]phenol] | 26 | 27 |  | 
CCOCc1nc2c(N)nc(C)c(Sc3ccc(CN(C)C)c(O)c3)c2[nH]1 [Example 11, 5-[[4-amino-2-(ethoxymethyl)-6-methyl-1H-imidazo[4,5-c]pyridin-7-yl]sulfanyl]-2-[(dimethylamino)methyl]phenol] | 4 | 18 |  | 
CCOCc1nc2c(N)nc(C)c(Sc3ccc(CN(C)C)c(C)c3O)c2[nH]1 [Example 16, 6-[[4-amino-2-(ethoxymethyl)-6-methyl-1H-imidazo[4,5-c]pyridin-7-yl]sulfanyl]-3-[(dimethylamino)methyl]-2-methyl-phenol] | 22 | 31 |  | 
CCOCc1nc2c(N)nc(C)c([Se]c3ccc(CN(C)C)cc3)c2n1CC(C)(C)O [Example 3, 1-[4-amino-7-[4-[(dimethylamino)methyl]phenyl]selanyl-2-(ethoxymethyl)-6-methyl-imidazo[4,5-c]pyridin-1-yl]-2-methyl-propan-2-ol] | 24 | 28 |  | 

Now from value to compound, other results behind:

EC50 (human TLR8) [nM] | EC50 (human TLR7) [nM] | Compound | HEK293-hTLR8 EC50 (human TLR8) | HEK293-hTLR7 EC50 (human TLR7)
37 | 310 | CCCCc1nc2c(N)nnc(N(C)Cc3ccc(CN(C)C)cc3)c2n1C [SAN-43, reference compound] | did not show comparable TLR7 and TLR8 activities | did not show comparable TLR7 and TLR8 activities
61 | 33 | CCOCc1nc2c(N)nc(C)c(Sc3cc(O)c(CN(C)C)cc3C)c2[nH]1 [Example 25, 5-[[4-amino-2-(ethoxymethyl)-6-methyl-1H-imidazo[4,5-c]pyridin-7-yl]sulfanyl]-2-[(dimethylamino)methyl]-4-methyl-phenol] |  | 
